The values below come from patent publication US8604049B2, “4-dimethylamino-phenyl-substituted naphthyridines, and use thereof as medicaments” (Boehringer Ingelheim International GmbH, priority 2008, dated 2013).

For the first test, the target named is T1, Recombinant human Syk (GST-Syk kinase fusion protein) (Homo sapiens, UniProt P43405).
T1 construct: made in house
Briefly: Syk Kinase Test (Kinase Glo luminescence). Format: biochemical. As to conditions: 1 μM test substance; 4 nM GST-Syk; read-out: SYK inh % at 1 μM. Here is the method:
The catalytic activity of the GST-Syk kinase fusion protein was determined using the Kinase Glo® Luminescence Kinase test of Messrs Promega. In this homogeneous test the amount of ATP remaining after the kinase reaction has been carried out is quantified by a luciferin-luciferase reaction using luminescence. The luminescence signal obtained correlates with the amount of ATP still present and thus correlates inversely with the activity of the protein kinase.
GST-Syk was diluted to 6.0 nM in the test buffer and 10 μl of this dilution were used in the kinase test (final concentration of Syk=4 nM in a total volume of 15 μl).
Positive controls are the reaction mixtures that contain no test substance; negative controls are reaction mixtures that contain no kinase.
After 60 minutes, 10 μl Kinase-Glo® solution (Promega, Cat. #V6712) (heated to ambient temperature) are added to each well and incubation is continued for a further 15 minutes at ambient temperature.
Data Evaluation and Calculation:
The output file of the “MicroBeta TRILUX” is a text file that contains the well number and measurements obtained. […] Then from this the % inherent value for the measurement of each substance concentration was calculated using an “MS-Excel—VB macro”. […] The IC50 values were calculated from the % inhibition values using “GraphPadPrism” software (Version 5) (GraphPad Software Inc.).
A general note: Kinase-Glo reads ATP consumption through a luciferase reaction.
Turning to `Cc1cc(-c2cc3ncccc3c(O[C@H]3CC[C@H](O)CC3)n2)ccc1N(C)C` [Example 2], the inhibition at 1 µM amounted to 71.9%.
Still for that read-out and setting: next, `Cc1cc(-c2cc3ncccc3c(NCCc3cn[nH]c3)n2)ccc1N(C)C` [Example 6]: 85.2%.
As for `Cc1cc(-c2cc3ncccc3c(O[C@H]3CC[C@@H](O)CC3)n2)ccc1N(C)C` [Example 1], the inhibition at 1 µM came to 85.2%.

Staying with this test, now noted: read-out: SYK inh % at 1 μM.
As for `COc1nc(-c2ccc(N(C)C)c(C)c2)cc2ncccc12` [Example 17, 5-methoxy-7-(4-dimethylamino-3-methylphenyl)-[1,6]naphthyridine], the inhibition at 1 µM came to 73.2%.
`Cc1cc(-c2cc3ncccc3c(N3CC[C@@H](CN)C3)n2)ccc1N(C)C` [Example 3, 5-(aminomethylpyrrolidin-1-yl)-7-(4-dimethylamino-3-methylphenyl)-[1,6]naphthyridine]: the inhibition at 1 µM came out at 88.2%.
Regarding `Cc1cc(-c2cc3ncccc3c(-n3cc(CCO)cn3)n2)ccc1N(C)C` [Example 12, 5-(4-hydroxyethyl-pyrazolyl)-7-(4-dimetyhlamino-3-methylphenyl)-[1,6]naphthyridine], the inhibition at 1 µM turned out to be 105%.
Turning to `Cc1cc(-c2cc3ncccc3c(NC3CC3)n2)ccc1N(C)C` [Example 20, 5-(cyclopropylamino)-7-(4-dimethylamino-3-methylphenyl)-[1,6]naphthyridine], the inhibition at 1 µM turned out to be 90.2%.
